Read-outs that look alike come from different tables or passages of the source.
What was measured:
[1] = system: MCF-7 primary breast adenocarcinoma cells
Experimental: The MCF-7 cells were seeded in six-well plates (150,000 cells/well), grown overnight (37° C., 5% CO2) during which they attached to the bottom plate. The cells were then treated with compound D5 (RS5982) or compound RS6008 at concentrations of 10 μM. 20 μM or 50 μM. In the negative and positive control experiments, the cells were treated with 0.25% DMSO and 1 μM of Paclitaxel, respectively. […] Finally, for each time point, the viable cell counts were plotted relatively to the number of viable cells measured in the presence of 0.25% DMSO.

[2] = system: MCF-7 primary breast adenocarcinoma cells; conditions: for cell proliferation (summary statement): combined experimental findings
Experimental: The MCF-7 cells were seeded in six-well plates (150,000 cells/well), grown overnight (37° C., 5% CO2) during which they attached to the bottom plate. The cells were then treated with compound D5 (RS5982) at concentrations of 10 μM, 20 μM or 50 μM. In the negative and positive control experiments, the cells were treated with 0.25% DMSO and 1 μM of Paclitaxel, respectively. After 24 h and 48 h of incubation, the cells were pulse-labeled (30 min) with 10 μM of bromodeozyuridine (BrdU; stains actively replicating DNA), collected, and fixed with 95% ethanol. Next, the cells were treated with a BrdU-specific antibody (1:5 dilution, BD Bioscience 347580) and incubated for 1 h at room temperature. The secondary antibody used was AF488 Donkey anti mouse (dilution 1:50), which was incubated for 1 h at room temperature. Total DNA was stained overnight (4° C.) with 2.5 μg/ml of propidium iodide. Fluorescence-activated cell sorting (FACS) analysis next allowed the quantification of cells occurring in various stages of the cell cycle. Specifically, measurements were performed using MACSquant FACS (Miltenyi Biotech), and analysed by FlowJo software (Ashland). The G2/M cell cycle stage was evaluated by DNA content and negativity for BrdU incorporation, to avoid an overlap between G2 and late S-phase. The number of G2/M phase cells were plotted relative to that measured in the presence of 0.25% DMSO at each time point (fold change values=1).

[3] = target: Ndc80 kinetochore subcomplex-MT binding (Homo sapiens, UniProt O14777); conditions: Ndc80 subcomplex:MTs 5 nM:10 nM; FIG. 3
From the text: Next, the Ndc80 kinetochore subcomplex was bound to AlphaScreen® acceptor beads. In parallel, biotinylated and taxol-stabilised MTs were bound to streptavidin-covered AlphaScreen® donor beads. […] A decrease in light emission is caused by abrogated Ndc80 kinetochore subcomplex-MT binding.
The recombinant His6-tagged Ndc80 kinetochore subcomplex was bound to AlphaScreen® (Amplified Luminescent Proximity Homogeneous Assay Screen) Ni^2+-acceptor beads. In parallel, biotinylated and taxol-stabilised MTs (Cytoskeleton) were bound to streptavidin-covered AlphaScreen® donor beads (Perkin Elmer). […] A decrease in or loss of light emission is caused by a reduced or total loss of Ndc80 kinetochore subcomplex-MT binding.

[4] = system: MCF-7 primary breast adenocarcinoma cells; conditions: 10 μM, versus 0.1% DMSO, FIG. 7A-C
Experimental: The MCF-7 cells were seeded in six-well plates (300,000 cells/well), grown overnight (37° C., 5% CO2) during which they attached to the bottom plate. […] The cells were then fixated (10 min) with ice cold 100% methanol, washed twice with phosphate-buffered saline (PBS), and incubated with 3% (w/v) bovine serum albumin (BSA) in PBS containing 0.05% Tween 20 (room temperature, 1 h). Next, the cells were incubated (room temperature, 1 h) with human CREST patient serum (1:30 dilution, Antibodies Incorporated) to mark kinetochores, and mouse monoclonal anti-α-tubulin antibody (clone B512, 1:1000 dilution, Sigma) to mark microtubules, followed by incubation (room temperature, 30 min) with a secondary anti-mouse or anti-human IgG antibody that was conjugated either to chromophore AF647 (1:500, Invitrogen), AF488 (1:500 dilution, Invitrogen). DNA was stained with 0.1 μg/ml 4,6-diamidino-2-phenylindole (DAPI, Sigma Aldrich) and coverslips were mounted with Prolong Diamond Antifade (P36965, Invitrogen). To perform immunofluorescence imaging, the cells were captured on a confocal Nikon Eclipse Ti2-Spinning Disc V2 microscope (100× objective, NA=1.45, Nikon) equipped with an Andor iXon Ultra EMCCD camera. Images, acquired as Z-stacks (0.15 μm for each stack; about 80 stacks for mitotic cells) and analysed with ImageJ (Fiji) v1.53f51.

Sequence of Ndc80 kinetochore subcomplex-MT binding (O14777 whole entry): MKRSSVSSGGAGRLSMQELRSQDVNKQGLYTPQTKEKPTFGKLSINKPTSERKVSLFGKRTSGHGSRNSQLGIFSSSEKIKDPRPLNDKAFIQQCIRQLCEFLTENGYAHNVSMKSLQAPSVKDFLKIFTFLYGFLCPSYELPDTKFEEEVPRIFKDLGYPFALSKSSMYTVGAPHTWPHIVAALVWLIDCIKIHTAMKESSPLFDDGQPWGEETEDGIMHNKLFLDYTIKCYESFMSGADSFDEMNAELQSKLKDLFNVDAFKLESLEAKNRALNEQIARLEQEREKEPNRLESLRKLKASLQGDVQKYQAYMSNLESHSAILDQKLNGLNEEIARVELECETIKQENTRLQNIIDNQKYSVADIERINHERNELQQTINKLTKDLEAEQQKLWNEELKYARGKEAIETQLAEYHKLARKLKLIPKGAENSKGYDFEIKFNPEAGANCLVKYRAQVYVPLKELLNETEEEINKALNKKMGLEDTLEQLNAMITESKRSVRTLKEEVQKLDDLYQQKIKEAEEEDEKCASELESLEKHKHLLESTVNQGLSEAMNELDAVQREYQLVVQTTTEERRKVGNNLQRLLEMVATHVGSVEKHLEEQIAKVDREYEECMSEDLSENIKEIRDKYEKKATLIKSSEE
Sequence of Ndc80 kinetochore subcomplex-MT binding (Q9BZD4 whole entry partner): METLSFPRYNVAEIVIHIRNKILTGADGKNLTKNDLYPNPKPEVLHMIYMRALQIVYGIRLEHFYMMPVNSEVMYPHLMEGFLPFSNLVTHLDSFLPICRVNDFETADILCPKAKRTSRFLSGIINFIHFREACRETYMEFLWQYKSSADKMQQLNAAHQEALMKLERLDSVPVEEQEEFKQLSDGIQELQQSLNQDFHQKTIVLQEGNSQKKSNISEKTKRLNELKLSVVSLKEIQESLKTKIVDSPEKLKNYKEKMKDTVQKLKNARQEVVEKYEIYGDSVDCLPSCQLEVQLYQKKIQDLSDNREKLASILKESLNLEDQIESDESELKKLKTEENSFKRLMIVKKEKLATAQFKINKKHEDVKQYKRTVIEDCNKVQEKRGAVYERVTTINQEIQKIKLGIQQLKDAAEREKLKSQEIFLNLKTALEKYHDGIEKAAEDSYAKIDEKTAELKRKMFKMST
Sequence of Ndc80 kinetochore subcomplex-MT binding (Q8NBT2 whole entry partner): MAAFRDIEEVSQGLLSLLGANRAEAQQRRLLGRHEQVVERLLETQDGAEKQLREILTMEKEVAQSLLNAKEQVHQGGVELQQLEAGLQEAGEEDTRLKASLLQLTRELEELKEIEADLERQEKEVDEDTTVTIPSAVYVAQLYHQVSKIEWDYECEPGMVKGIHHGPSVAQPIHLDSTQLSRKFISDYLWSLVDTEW
Sequence of Ndc80 kinetochore subcomplex-MT binding (Q9HBM1 whole entry partner): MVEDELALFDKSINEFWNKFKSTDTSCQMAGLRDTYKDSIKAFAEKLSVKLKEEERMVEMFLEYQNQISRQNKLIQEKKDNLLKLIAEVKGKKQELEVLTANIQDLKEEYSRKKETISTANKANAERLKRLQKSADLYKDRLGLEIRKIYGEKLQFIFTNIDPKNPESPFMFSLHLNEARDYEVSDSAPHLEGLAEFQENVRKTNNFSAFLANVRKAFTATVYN

| inhibition in the biochemical AlphaScreen binding assay [3] [%] | SMILES | cell viability ([1]; 10, 20 or 50 μM, 24, 48, 72 h, relative to 0.25% DMSO, FIG. 4) | arrest at mitotic entry (G2/M phase) ([2]; 10, 20 or 50 μM, 24 and 48 h, relative to 0.25% DMSO, FIG. 5) | cell proliferation (summary statement) [2] | anomalous kinetochore activity (unbound sister chromatids, lagging chromosomes) compared to control cells [4] | cell viability ([1]; 50 μM, FIG. 6) |
| --- | --- | --- | --- | --- | --- | --- |
| 59.93 | Cc1ccc(NC(=O)c2cc(-c3ccc(C)o3)nc3ccccc23)c(C)c1 [D5, N-(2,4-Dimethylphenyl)-2-(5-methylfuran-2-yl) quinoline-4-carboxamide] | dose (D5)-dependent decrease in cell viability | enhanced arrest at mitotic entry (G2/M phase) | delayed cell proliferation | increase in anomalous kinetochore activity | – |
| – | Cc1ccc(-c2cc(C(=O)Nc3ccc(C(F)(F)F)cc3C(F)(F)F)c3ccccc3n2)o1 [RS6648, N-(2,4-bis(Trifluoromethyl)phenyl)-2-(5-methylfuran-2-yl) quinoline-4-carboxamide] | – | – | delayed cell proliferation | increase in anomalous kinetochore activity | – |
| – | Cc1ccc(NC(=O)c2cc(-c3ccco3)nc3ccccc23)c(C)c1 [RS6008, N-(2,4-Dimethylphenyl)-2-(furan-2-yl) quinoline-4-carboxamide] | – | – | delayed cell proliferation | – | strong decrease in cell viability |

Source: patent US20250074880A1, “NOVEL QUINOLINE DERIVATIVES AND USES THEREOF” (Istituto Europeo di Oncologia S.r.l., priority 2021, published 2025)
